Patent US8629147B2, “Heterocyclic compounds useful in the treatment of neoplastic diseases, inflammatory disorders and immunomodulatory disorders” (ChemBridge Corporation, priority 2005, dated 2014)

Legend:
[1] = molecular target: T1, recombinant TrkA kinase domain (Homo sapiens, UniProt P04629); assay: TrkA tyrosine kinase activity inhibition, Alphascreen phosphotyrosine PT66 assay; assay type: biochemical; settings: compounds 10 to 0.005 μM, 1 hour incubation
T1 construct: commercial preparation of recombinant TrkA kinase domain; purchased Upstate Cell Signaling 14-571
Experimental: Inhibition of TrkA tyrosine kinase activity was measured using the Alphascreen phosphotyrosine PT66 assay kit (Perkin Elmer Life Sciences, Catalog Number 6760602) according to the manufacturer's instructions. As a source of enzymatically active TrkA kinase for this assay, the commercial preparation of recombinant TrkA kinase domain (Upstate Cell Signaling, Catalog Number 14-571) was used. Biotinylated poly Glu-Tyr 4:1 (CIS bio-international, catalog number 61GT0BLA) was used for the kinase substrate. Compounds were serially diluted to give a concentration range from 10 to 0.005 μM and co-incubated with TrkA kinase, biotinylated peptide substrate and Alphascreen kit components for 1 hour and then read in a Perkin-Elmer Alpha Fusion plate reader. A plot of counts per minute versus log concentration of compounds was fitted to a sigmoidal dose response curve using Graphpad Prism software to generate IC50 values.

[2] = molecular target: T2, human IGF1R kinase domain (Homo sapiens, UniProt P08069); assay: IGF1R tyrosine phosphorylation inhibition, Alphascreen phosphotyrosine PT66 assay; assay type: biochemical; settings: recombinant kinase domain, 1 hour co-incubation, 20 to 0.1 μM
T2 construct: human IGF1R precursor protein corresponding to the amino acids positions 974 through 1293; 6xHis; made in house; host or cells: SF9 insect cells, recombinant baculovirus (Bac-to-Bac System)
Experimental: Inhibition of IGF1R tyrosine phosphorylation was measured in the Alphascreen phosphotyrosine PT66 assay kit (Perkin Elmer Life sciences, Catalog number 6760602) according to the manufacturer's instructions. As a source of enzymatically active IGF1r kinase for this assay, SF9 insect cells were infected with recombinant baculovirus (Bac-to-Bac System, Invitrogen, Carlsbad, Calif.) encoding 6×His-tagged kinase domain portion of human IGF1R precursor protein corresponding to the amino acids positions 974 through 1293 (Abbott et al., 1992, J. Biol. Chem. 267:10759-10763) and recombinant kinase protein was purified to homogeneity using two-step chromatography on immobilized Ni^2+ resin (Ni-NTA) and ion-exchange Q-Sepharose column. Biotinylated poly glu-tyr 4:1 (CIS bio-international, catalog number 61GT0BLA) was used for the kinase substrate. Compounds were serially diluted to give a concentration range from 20 to 0.1 μM and co-incubated with IGF1r kinase, biotinylated peptide substrate and alphascreen components for 1 hour and then read in a Perkin-Elmer alphafusion plate reader. A plot of counts per minute versus log concentration of compounds was fitted to a sigmoidal dose response curve using Graphpad Prism software to generate IC50 values (see FIG. 1 for an example).

[3] = test system: MCF7 human breast tumor cells; assay: CellTiter-Glo luminescent cell viability assay, MCF7; assay type: cell-based; settings: 48 hours, 20 to 0.1 μM
Experimental: (§1) Cell viability of either MCF7 human breast tumor cells (American Type Culture Collection catalog #HTB 22) or NCI-H929 human plasmacytoma cells (ATCC catalog #CRL-9068) was assessed using the Promega CellTiter-Glo luminescent cell viability assay according to manufacturer's instructions. In brief, cells were plated at 10,000 cells per well in a clear bottom white 96 well microtiter plate (Costar catalog #3604) in 100 μL of cell growth medium. Compounds were then added to the cells to give final concentrations of compound ranging from 20 to 0.1 μM. Cells were incubated 48 hours after which 100 μL per well of celltiter-glo reagent was added and luminescence was measured in a BMG polarstar plate luminometer. A plot of counts per minute versus log concentration of compounds was fitted to a sigmoidal dose response curve using Graphpad Prism software to generate IC50 values.

[4] = test system: NCI-H929 human plasmacytoma cells; assay: CellTiter-Glo luminescent cell viability assay, NCI-H929; assay type: cell-based; settings: 48 hours, 20 to 0.1 μM
Experimental: as §1

T2 sequence (P08069 974-1293): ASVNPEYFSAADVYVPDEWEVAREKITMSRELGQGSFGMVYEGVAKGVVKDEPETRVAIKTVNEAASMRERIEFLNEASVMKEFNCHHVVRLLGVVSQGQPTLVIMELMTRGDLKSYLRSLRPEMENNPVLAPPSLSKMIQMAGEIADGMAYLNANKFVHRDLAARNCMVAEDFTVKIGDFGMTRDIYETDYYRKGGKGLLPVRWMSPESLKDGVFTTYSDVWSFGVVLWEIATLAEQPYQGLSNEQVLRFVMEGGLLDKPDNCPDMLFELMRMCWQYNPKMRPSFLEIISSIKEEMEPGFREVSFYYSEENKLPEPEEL
T1 sequence (P04629 510-781 limits assumed): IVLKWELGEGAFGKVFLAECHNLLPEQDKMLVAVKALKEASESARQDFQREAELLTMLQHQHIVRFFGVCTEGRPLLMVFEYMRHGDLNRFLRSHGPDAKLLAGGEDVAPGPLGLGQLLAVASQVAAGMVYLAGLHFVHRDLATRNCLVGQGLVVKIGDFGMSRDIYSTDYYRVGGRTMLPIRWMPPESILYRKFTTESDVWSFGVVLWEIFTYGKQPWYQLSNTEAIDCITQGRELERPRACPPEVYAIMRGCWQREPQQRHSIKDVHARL

| Compound | IC50 [1] | IC50 [2] | IC50 [3] | IC50 [4] |
| --- | --- | --- | --- | --- |
| COc1ncccc1-c1ccc(O)c(-c2nc3cc(C(=O)N[C@@H](CO)Cc4c[nH]cn4)ccc3[nH]2)c1 | < 0.02 µM |  |  |  |
| CN1CCN(CCc2ccc(NC(=O)c3cn(-c4nccc(-c5ccc(N(C)C)cc5)n4)nc3N)cc2)CC1 |  | ≤ 5 µM | 10 to 15 µM | 5 to 10 µM |
| COc1ncccc1-c1ccc(O)c(-c2nc3ccc(C(=O)NCC4CCCC(CN)C4)cc3[nH]2)c1 (stereo not drawn) | > 0.2 µM |  |  |  |
| COc1ncccc1-c1ccc(O)c(-c2nc3cc(C(=O)N[C@@H](C)Cc4c[nH]cn4)ccc3[nH]2)c1 | > 0.2 µM |  |  |  |
| COc1ncccc1-c1ccc(O)c(-c2nc3ccc(C(=O)NC4CCCC(N)C4)cc3[nH]2)c1 (stereo not drawn) | > 0.2 µM |  |  |  |
| COc1ncccc1-c1ccc(O)c(-c2nc3ccc(C(=O)NCCCN4CCCCC4C)cc3[nH]2)c1 (stereo not drawn) | < 0.02 µM |  |  |  |
| COc1ncccc1-c1ccc(O)c(-c2nc3cc(C(=O)NCCc4c[nH]cn4)c(F)cc3[nH]2)c1 | < 0.02 µM |  |  |  |
| CCN1CCC2(CCN(CCc3ccc(NC(=O)c4ccc5[nH]c(-c6cc(-c7cccnc7OC)ccc6O)nc5c4)cc3)C2)C1 (stereo not drawn) |  | ≤ 5 µM | 10 to 15 µM | ≤ 5 µM |
| COc1ncccc1-c1ccc(O)c(-c2nc3ccc(C(=O)NCC4CCN(Cc5ccccc5)C4)cc3[nH]2)c1 (stereo not drawn) | 0.02 to 0.2 µM |  |  |  |
| CCN(CC)CCOc1ccc(NC(=O)c2cn(-c3ncc4c(n3)-c3ccccc3OC4)nc2N)cc1 |  | ≤ 5 µM |  | > 25 µM |
| Cc1cc(N2CCN(C)CC2)cc2nc(-c3nc4cc(N5CCN(C)CC5)cc(C)c4[nH]3)[nH]c12 |  | ≤ 5 µM | > 25 µM | 10 to 15 µM |
| COc1ccc2c(c1)CCc1cnc(-n3cc(C(=O)Nc4ccc(/C=C/CN5CCN(C)CC5)cc4)c(N)n3)nc1-2 |  | ≤ 5 µM | 10 to 15 µM | 5 to 10 µM |
| COc1ccc2c(c1)CCc1cnc(-n3cc(C(=O)Nc4ccc(CCN5CCC(N)CC5)cc4)c(N)n3)nc1-2 |  | ≤ 5 µM | > 25 µM |  |
| COCCN1CCC(CNC(=O)c2ccc3nc(-c4cc(-c5cccnc5OC)ccc4O)[nH]c3c2)C1 (stereo not drawn) | 0.02 to 0.2 µM |  |  |  |
| COc1ccc2c(c1)CCc1cnc(-n3cc(C(=O)NCCc4c[nH]c5ccccc45)c(N)n3)nc1-2 |  | ≤ 5 µM | 5 to 10 µM | > 25 µM |
| COc1ncccc1-c1ccc(O)c(-c2nc3cc(C(=O)N[C@H](CO)Cc4c[nH]cn4)ccc3[nH]2)c1 | < 0.02 µM |  |  |  |
| O=C(NCCc1c[nH]cn1)c1cc2nc(-c3cc(-c4cccnc4O)ccc3O)[nH]c2cc1Cl | < 0.02 µM |  |  |  |

| Compound | IC50 [1] | IC50 [2] | IC50 [3] | IC50 [4] |
| --- | --- | --- | --- | --- |
| CCN1CCC2(CCN(c3cc(C)c4nc(-c5c(NC[C@@H](O)c6cccc(Cl)c6)cc[nH]c5=O)[nH]c4c3)C2)C1 (stereo partly drawn) |  | ≤ 5 µM | 5 to 10 µM | ≤ 5 µM |
| CN1CCN(CCc2ccc(NC(=O)c3cn(-c4ncc5c(n4)-c4cc(Cl)ccc4OC5)nc3N)cc2)CC1 |  | ≤ 5 µM | 10 to 15 µM | 5 to 10 µM |
| CN1CCN(Cc2cccc(NC(=O)c3cc(N)n(-c4ncc5c(n4)-c4ccccc4CC5)n3)c2)CC1 |  | ≤ 5 µM | 10 to 15 µM | 10 to 15 µM |
| CCN1CCC2(CCN(CCc3ccc(NC(=O)c4ccc5[nH]c(-c6cc(-c7cccnc7O)ccc6O)nc5c4)cc3)C2)C1 (stereo not drawn) [drawing 1786] |  | ≤ 5 µM | 5 to 10 µM | ≤ 5 µM |
| COc1ncccc1-c1ccc(O)c(-c2nc3ccc(C(=O)NCCCCCN(C)C)cc3[nH]2)c1 | > 0.2 µM |  |  |  |
| COc1ncccc1-c1ccc(O)c(-c2nc3ccc(C(=O)NCC4CCN(CCO)CC4)cc3[nH]2)c1 | < 0.02 µM |  |  |  |
| COc1ncccc1-c1ccc2[nH]c(-c3nc4cc(C(=O)Nc5ccc(CCN6CCN(C)CC6)cc5)ccc4[nH]3)nc2c1 |  | ≤ 5 µM | 10 to 15 µM | ≤ 5 µM |
| COc1ccc2c(c1)CCc1cnc(-n3cc(C(=O)NC4CCN(CCCc5ccncc5)CC4)c(N)n3)nc1-2 |  | ≤ 5 µM | 5 to 10 µM | ≤ 5 µM |
| COc1ccc2c(c1)CCc1cnc(-n3cc(C(=O)Nc4ccc(CCN5CCN6CCC[C@H]6C5)cc4)c(N)n3)nc1-2 |  | ≤ 5 µM | 10 to 15 µM | 5 to 10 µM |
| COC(=O)[C@H](Cc1c[nH]cn1)NC(=O)c1ccc2[nH]c(-c3cc(-c4cccnc4OC)ccc3O)nc2c1 | 0.02 to 0.2 µM |  |  |  |
| COc1ncccc1-c1ccc(O)c(-c2nc3ccc(C(=O)NCCc4c[nH]cn4)cc3[nH]2)c1 | 0.02 to 0.2 µM |  |  |  |
| COc1cc(O)c(-c2nc3ccc(C(=O)NCCc4c[nH]cn4)cc3[nH]2)cc1-c1cccnc1OC | 0.02 to 0.2 µM |  |  |  |
| CN1CCCC2(CCCN(CCc3ccc(NC(=O)c4ccc5nc(-c6cc(-c7cccnc7O)ccc6O)[nH]c5c4)cc3)C2)C1 (stereo not drawn) [drawing 1793] | > 0.2 µM |  |  |  |
| CCN(CC)CCCNC(=O)c1ccc2nc(-c3cc(-c4cccnc4OC)ccc3O)[nH]c2c1 | < 0.02 µM |  |  |  |
| COc1ncccc1-c1ccc(O)c(-c2nc3cc(C(=O)N[C@@H](Cc4c[nH]cn4)C(N)=O)ccc3[nH]2)c1 | < 0.02 µM |  |  |  |
| CCN1CCC2(CCN(CCc3ccc(NC(=O)c4ccc5[nH]c(-c6cc(-c7cccnc7O)ccc6O)nc5c4)cc3)C2)C1 (stereo not drawn) [drawing 1792] | < 0.02 µM |  |  |  |

Continued, values first:

| IC50 [1] | IC50 [2] | IC50 [3] | IC50 [4] | Compound |
| --- | --- | --- | --- | --- |
| 0.02 to 0.2 µM |  |  |  | COc1ncccc1-c1ccc(O)c(-c2nc3ccc(C(=O)NCCC4CCCN4C)cc3[nH]2)c1 (stereo not drawn) |
| > 0.2 µM |  |  |  | COc1ncccc1-c1ccc(O)c(-c2nc3ccc(C(=O)Nc4ccc(OCCN5CCN(C)CC5)cc4)cc3[nH]2)c1 |
|  | ≤ 5 µM | 10 to 15 µM | 10 to 15 µM | CN1CCN(c2ccc3nc(-c4ccc(O)c(O)c4O)[nH]c3c2)CC1 |
| > 0.2 µM |  |  |  | COc1ncccc1-c1ccc(O)c(-c2nc3cc(C(=O)NCc4ccc(CN5CCN(C)CC5)cc4)ccc3[nH]2)c1 |
| 0.02 to 0.2 µM |  |  |  | CN1CCN(CCc2ccc(NC(=O)c3cc4nc(-c5cc(-c6cccnc6O)ccc5O)[nH]c4cc3Cl)cc2)CC1 |
|  | ≤ 5 µM | 10 to 15 µM | 5 to 10 µM | CN1CCN(c2ccc3nc(-c4cc(-c5ccc(N(C)C)cc5)ccc4O)[nH]c3c2)CC1 |
|  | ≤ 5 µM | 10 to 15 µM | ≤ 5 µM | COc1ncccc1-c1ccc2[nH]c(-c3nc4cc(N5CCN(C)CC5)ccc4[nH]3)nc2c1 |
|  | ≤ 5 µM | 5 to 10 µM | ≤ 5 µM | COc1ncccc1-c1ccc(O)c(-c2nc3ccc(C(=O)Nc4ccc(CCN5CCN(C)CC5)cc4)cc3[nH]2)c1 |
|  | ≤ 5 µM | 10 to 15 µM | > 25 µM | CN1CCN(c2ccc3nc(-c4ccc(OCc5ccccc5)cc4O)[nH]c3c2)CC1 |
| > 0.2 µM |  |  |  | COc1ncccc1-c1ccc(O)c(-c2nc3ccc(C(=O)Nc4ccc(OCCCN5CCN(C)CC5)cc4)cc3[nH]2)c1 |
| > 0.2 µM |  |  |  | COc1ncccc1-c1ccc(O)c(-c2nc3ccc(C(=O)NCCCN4CCN(C)CC4)cc3[nH]2)c1 |
| 0.02 to 0.2 µM |  |  |  | COc1ncccc1-c1ccc(O)c(-c2nc3ccc(C(=O)Nc4ccc(CCN5CCN(c6ccncc6)CC5)cc4)cc3[nH]2)c1 |
| > 0.2 µM |  |  |  | COc1ncccc1-c1ccc(O)c(-c2nc3ccc(C(=O)NCc4ccc5c(c4)CCCN5C)cc3[nH]2)c1 |
| > 0.2 µM |  |  |  | COc1ncccc1-c1ccc(O)c(-c2nc3ccc(C(=O)NCCCCN4CCCC4)cc3[nH]2)c1 [drawing 1807] |
|  | ≤ 5 µM | 10 to 15 µM | 5 to 10 µM | CN1CCN(c2ccc(NC(=O)c3ccc4nc(-c5ccc6ccccc6c5O)[nH]c4c3)cc2)CC1 |
| 0.02 to 0.2 µM |  |  |  | CN1CCN(CCc2ccc(NC(=O)c3ccc4nc(-c5cc(-c6cccnc6O)ccc5O)[nH]c4c3)cc2)CC1 |
| < 0.02 µM |  |  |  | COc1ncccc1-c1ccc(O)c(-c2nc3ccc(C(=O)NCCCCN4CCCC4)cc3[nH]2)c1 [drawing 1800] |
|  | ≤ 5 µM | 10 to 15 µM |  | CN1CCN(Cc2ccc(NC(=O)c3ccc4[nH]c(-c5cc(Br)ccc5O)nc4c3)cc2)CC1 |
